For assay [1], the target named is T1, matriptase (Homo sapiens, UniProt Q9Y5Y6).
T1 construct: catalytic domain of matriptase (uniport: Q9Y5Y6 aa 596–855); hexa-histidine (N); made in house; host or cells: Escherichia coli BL21 Gold (DE3)
T1 sequence (Q9Y5Y6 596-855): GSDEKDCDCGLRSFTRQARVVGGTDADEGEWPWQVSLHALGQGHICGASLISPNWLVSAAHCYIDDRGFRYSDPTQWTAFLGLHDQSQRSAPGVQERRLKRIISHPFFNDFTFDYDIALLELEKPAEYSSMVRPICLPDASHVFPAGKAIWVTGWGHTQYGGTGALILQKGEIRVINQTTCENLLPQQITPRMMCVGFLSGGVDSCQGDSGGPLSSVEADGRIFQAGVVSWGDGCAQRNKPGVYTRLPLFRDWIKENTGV
Briefly: fluorometric enzyme inhibition assay, matriptase (Boc-Leu-Arg-Arg-AMC). It is filed as biochemical. As for the experimental part:
(§1) The inhibitory activity of the synthesized compounds towards the respective main- and off-target proteases was measured via fluorometric and colorimetric assays. Thus, fluorogenic AMC- or colorimetric pNA-based substrates with a peptide sequence suitable for the tested protease were utilized (see Supplementary Figure S2). At first, the compounds were screened against […] proteases (uPA, TMPRSS2, matriptase, tPA, thrombin, factor Xa) at 20 µM, and a cut-off value of 80% inhibition at this concentration was set, for the differentiation between nonactive (n.a.) and active inhibitors. Due to the reversible inhibition mechanism of the ketobenzothiazole derivates, the IC50 values were determined with Graphpad Prism 9, and afterwards converted to the corresponding Ki values for an adequate comparison between the inhibitory activities of the compounds toward all tested proteases. The Ki values were calculated using the Cheng–Prusoff equation [43].
(§2) Fluorometric inhibition assays
(§3) The inhibitory activities of the compounds against the proteases were determined by enzyme inhibition assays with fluorogenic or colorimetry-based substrates. The fluorescence, caused by cleaved AMC from the fluorogenic substrates (uPA, matriptase, TMPRSS2, thrombin), was measured in white flat-bottom 96-well plates from Greiner Bio-One using a Tecan Infinite F200 Pro plate reader. The absorption, caused by cleaved pNA from colorimetric substrates (factor Xa and tPA), was measured in transparent flat-bottom 96-well plates from Greiner Bio-One using a Tecan Spark 10M plate reader. All measurements with the main-target proteases (uPA and TMRPSS2) were performed as triplicates and with the off-target proteases (matriptase, factor Xa, tPA, thrombin) as duplicates. The substrates and the compounds were prepared as stock solutions in DMSO. Each well contained a total volume of 200 µL, consisting of 185 µL buffer, 5 µL inhibitor in DMSO or pure DMSO as negative control, 5 µL substrate in DMSO and 5 µL enzyme solution in buffer. Dilution series were prepared for the determination of the inhibition constants. The fluorescence signal and absorbance were measured every 30 s for 10 min at 25 or 37 °C with the corresponding excitation/emission (λex = 380 nm / λem = 460 nm) and absorbance (λabs = 405 nm) wavelengths, depending on the targeted protease. IC50 values for the reversible inhibitors were calculated with Graphpad Prism 9 by fitting the remaining enzymatic activity to the four parameter IC50 equation with Y [%] as the residual enzyme activity , Ymax as the maximum value of the dose response curve at inhibitor concentrations [I] = 0 µM, Ymin as the minimum value at high inhibitor concentrations and s as the hill coefficient.[1] The fluorescence progress curves and sigmoidal dose-response curve for inhibition of uPa by compound 38 is shown exemplary in Figure S2. […]
(§4) Due to the dependence of the IC50 value on the substrate affinity and concentration, the Ki values were calculated with the Cheng-Prusoff equation, using the final substrate concentration [S] and the Michaelis-Menten constant KM, (2) for appropriate comparison of the inhibitory activities to the other enzymes and inhibitors.[1]
(§5) KM values were determined by fitting to the Michaelis-Menten equation using Graphpad Prism 9 with v [ΔF/min] as the substrate hydrolysis rate, vmax as the maximum slope of the dose-response curve, and the substrate [S] concentration.[1] The different substrates were serially diluted in DMSO. The measurement was done in analogy to the determination of the inhibitory activity, but with 5 µL pure DMSO instead of inhibitor solution. […]
(§6) The following buffers and substrates were used for the respective assays: uPA (50 mM Tris HCl pH = 7.9, 150 mM […]
(§7) TMPRSS2 (25 mM Tris HCl pH = 8.0, 150 mM NaCl, 5 mM CaCl2, 0.001% TX-100, 100 µM Boc-Gln-Ala-Arg-AMC (KM: 68.63 ± 6.64 µM), 25 °C, 3 nM TMPRSS2)[3]; matriptase (50 mM Tris HCl pH = 8.0, 150 mM NaCl, 5 mM CaCl2, […]

The target in assay [2] is T2, factor Xa (Homo sapiens, UniProt P00742).
T2 construct: purchased Bio-techne
T2 sequence (P00742 235-488 limits assumed): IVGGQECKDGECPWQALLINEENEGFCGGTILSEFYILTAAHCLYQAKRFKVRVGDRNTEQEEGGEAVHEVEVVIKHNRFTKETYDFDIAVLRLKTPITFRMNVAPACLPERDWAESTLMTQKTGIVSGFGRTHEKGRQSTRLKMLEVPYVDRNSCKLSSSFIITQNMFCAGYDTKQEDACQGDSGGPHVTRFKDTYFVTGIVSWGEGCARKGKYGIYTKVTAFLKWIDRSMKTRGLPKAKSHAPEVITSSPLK
T2 sequence (P00742 41-179 partner limits assumed): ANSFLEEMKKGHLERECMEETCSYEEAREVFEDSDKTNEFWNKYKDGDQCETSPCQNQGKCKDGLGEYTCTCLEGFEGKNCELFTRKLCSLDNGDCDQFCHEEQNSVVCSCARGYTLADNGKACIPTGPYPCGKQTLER
The arrangement: method as in PMID 35804152. The conditions noted are these: published inhibitor; cited from earlier work.

The target in assay [3] is T3, thrombin (Homo sapiens, UniProt P00734).
T3 construct: purchased Bio-techne
The arrangement: method as in PMID 35804152. The conditions noted are these: published inhibitor; cited from earlier work.

Assay [4] has as its target T2, factor Xa. Briefly: colorimetric enzyme inhibition assay, factor Xa (Z-D-Arg-Gly-Arg-pNA). It is filed as biochemical. The procedure:
as §1, §2, §3, §4, §5, §6, §7

For assay [5], the target named is T4, TMPRSS2 (Homo sapiens, UniProt O15393).
T4 construct: purchased Cusabio
T4 sequence (O15393 whole entry): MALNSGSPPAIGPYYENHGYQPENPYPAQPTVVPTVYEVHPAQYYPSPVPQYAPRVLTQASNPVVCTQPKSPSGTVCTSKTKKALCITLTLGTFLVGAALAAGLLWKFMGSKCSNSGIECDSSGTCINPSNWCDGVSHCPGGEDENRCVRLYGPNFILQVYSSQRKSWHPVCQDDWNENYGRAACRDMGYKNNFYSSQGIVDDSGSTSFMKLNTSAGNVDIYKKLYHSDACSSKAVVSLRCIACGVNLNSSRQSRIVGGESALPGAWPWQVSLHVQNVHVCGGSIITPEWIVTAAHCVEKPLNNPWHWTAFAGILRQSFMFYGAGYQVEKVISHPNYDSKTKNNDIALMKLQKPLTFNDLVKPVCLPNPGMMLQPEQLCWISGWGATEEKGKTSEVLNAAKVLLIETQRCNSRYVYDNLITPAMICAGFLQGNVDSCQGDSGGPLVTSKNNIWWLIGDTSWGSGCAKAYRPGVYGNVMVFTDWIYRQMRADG
Further details: method as in PMID 35804152. The conditions noted are these: published inhibitor; cited from earlier work.

The target of assay [6] is T1, matriptase. The arrangement: method as in PMID 35804152. The conditions noted are these: published inhibitor; cited from earlier work.
Assay [7] addresses T3, thrombin. Briefly: fluorometric enzyme inhibition assay, thrombin (Z-Gly-Gly-Arg-AMC). It is filed as biochemical. As for the experimental part: as §1, §2, §3, §4, §5, §6, §7
Assay [8] has as its target T4, TMPRSS2. Briefly: fluorometric enzyme inhibition assay, TMPRSS2 (Boc-Gln-Ala-Arg-AMC). It is filed as biochemical. As for the experimental part: as §1, §2, §3, §4, §5, §6, §7
In the next assay the target is T5, uPA (Homo sapiens, UniProt P00749).
T5 construct: purchased Sigma Aldrich
Briefly: fluorometric enzyme inhibition assay, uPA (Z-Gly-Gly-Arg-AMC). It is filed as biochemical. The conditions noted are these: from IC50 by Cheng-Prusoff; n.a. = not active, <80% inhibition at 20 µM. The procedure: as §1, §2
The inhibitory activities of the compounds against the proteases were determined by enzyme inhibition assays with fluorogenic or colorimetry-based substrates. The fluorescence, caused by cleaved AMC from the fluorogenic substrates (uPA, matriptase, TMPRSS2, thrombin), was measured in white flat-bottom 96-well plates from Greiner Bio-One using a Tecan Infinite F200 Pro plate reader. The absorption, caused by cleaved pNA from colorimetric substrates (factor Xa and tPA), was measured in transparent flat-bottom 96-well plates from Greiner Bio-One using a Tecan Spark 10M plate reader. All measurements with the main-target proteases (uPA and TMRPSS2) were performed as triplicates and with the off-target proteases (matriptase, factor Xa, tPA, thrombin) as duplicates. The substrates and the compounds were prepared as stock solutions in DMSO. Each well contained a total volume of 200 µL, consisting of 185 µL buffer, 5 µL inhibitor in DMSO or pure DMSO as negative control, 5 µL substrate in DMSO and 5 µL enzyme solution in buffer. Dilution series were prepared for the determination of the inhibition constants. The fluorescence signal and absorbance were measured every 30 s for 10 min at 25 or 37 °C with the corresponding excitation/emission (λex = 380 nm / λem = 460 nm) and absorbance (λabs = 405 nm) wavelengths, depending on the targeted protease. IC50 values for the reversible inhibitors were calculated with Graphpad Prism 9 by fitting the remaining enzymatic activity to the four parameter IC50 equation with Y [%] as the residual enzyme activity , Ymax as the maximum value of the dose response curve at inhibitor concentrations [I] = 0 µM, Ymin as the minimum value at high inhibitor concentrations and s as the hill coefficient.[1] The fluorescence progress curves and sigmoidal dose-response curve for inhibition of uPa by compound 38 is shown exemplary in Figure S2.
Figure S2: (left) Fluorescence progress curves for inhibition of uPa by cpd. 38. (right) Plot showing the respective IC50 value […]
as §4
KM values were determined by fitting to the Michaelis-Menten equation using Graphpad Prism 9 with v [ΔF/min] as the substrate hydrolysis rate, vmax as the maximum slope of the dose-response curve, and the substrate [S] concentration.[1] The different substrates were serially diluted in DMSO. The measurement was done in analogy to the determination of the inhibitory activity, but with 5 µL pure DMSO instead of inhibitor solution. The fluorescence progress curves and Michaelis-Menten curve of the specific substrate of uPA is shown exemplarily […]
Figure S3: (left) Fluorescence progress curves of cleavage of Z-Gly-Gly-Arg-AMC by uPA. (right) Michaelis-Menten curve […]

The target of a further assay is T6, tPA (Homo sapiens, UniProt P00750).
T6 construct: purchased Sigma Aldrich
T6 sequence (P00750 36-562): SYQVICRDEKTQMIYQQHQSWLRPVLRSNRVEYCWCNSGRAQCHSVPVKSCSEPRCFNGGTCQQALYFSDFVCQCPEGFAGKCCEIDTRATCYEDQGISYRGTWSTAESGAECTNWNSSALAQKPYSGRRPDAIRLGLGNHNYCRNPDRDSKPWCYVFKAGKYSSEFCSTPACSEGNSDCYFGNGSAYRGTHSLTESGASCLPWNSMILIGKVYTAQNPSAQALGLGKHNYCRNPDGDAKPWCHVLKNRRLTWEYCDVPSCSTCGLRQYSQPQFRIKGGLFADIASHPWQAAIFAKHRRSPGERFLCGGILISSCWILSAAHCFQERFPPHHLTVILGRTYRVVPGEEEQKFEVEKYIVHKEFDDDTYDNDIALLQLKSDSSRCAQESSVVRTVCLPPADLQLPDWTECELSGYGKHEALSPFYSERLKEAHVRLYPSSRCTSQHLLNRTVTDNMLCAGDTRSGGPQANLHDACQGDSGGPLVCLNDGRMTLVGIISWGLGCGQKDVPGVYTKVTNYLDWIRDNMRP
Briefly: colorimetric enzyme inhibition assay, tPA (N-methylsulfonyl-D-Phe-Gly-Arg-pNA). It is filed as biochemical. The conditions noted are these: from IC50 by Cheng-Prusoff; n.a. = not active, <80% inhibition at 20 µM. As for the experimental part:
as §1, §2, §3, §4
KM values were determined by fitting to the Michaelis-Menten equation using Graphpad Prism 9 with v [ΔF/min] as the substrate hydrolysis rate, vmax as the maximum slope of the dose-response curve, and the substrate [S] concentration.[1] The different substrates were serially diluted in DMSO. […]

The mark [9] stands for this setting: from IC50 by Cheng-Prusoff, n.a. = not active, <80% inhibition at 20 µM.

Like-named read-outs stand apart in the source and are kept apart here.

What is called Ki is the dissociation constant of the complex between target and ligand, obtained from inhibition or displacement.

For `CC(=O)N[C@@H](CC(N)=O)C(=O)N1CCC[C@H]1C(=O)N[C@@H](CCCNC(=N)N)C(=O)c1nc2ccccc2s1` [Ac-L-Asn-L-Pro-L-Arg-kbt], the “Selectivity index [SI] Matriptase” value at matriptase [1] (quotient Ki matriptase / Ki TMPRSS2, from cited Ki values (ref 29)) is on record as 2. Further, the inhibition constant (Ki) at factor Xa [2] was 41.1 nM; on thrombin [3], 1050 nM; at TMPRSS2 [5] it was 2.5 nM; at matriptase [6] it was 5.2 nM. The “Selectivity index [SI] Factor Xa” value on factor Xa [4] (quotient Ki factor Xa / Ki TMPRSS2, from cited Ki values (ref 29)) was 16. In addition, the “Selectivity index [SI] Thrombin” value on thrombin [7] (quotient Ki thrombin / Ki TMPRSS2, from cited Ki values (ref 29)) came out at 418.

With `CC(=O)NCC(=O)NC(C(=O)NC(C)C(=O)NC(CCCNC(=N)N)C(=O)c1nc2ccccc2s1)C(C)O` [Compound 14a, Ac-Gly-L-Thr-L-Ala-L-Arg-kbt], the Ki at matriptase [1] (setting [9]) was 32 ± 14 nM; on TMPRSS2 [8] (setting [9]), 5 ± 1 nM; at uPA, 141 ± 28 nM; on factor Xa [4] (setting [9]) it was 3360 ± 320 nM; on thrombin [7] (setting [9]), 4390 ± 1480 nM. Further, the “Selectivity index [SI] Matriptase” value at matriptase [1] (quotient Ki matriptase / Ki uPA) was 0.2. At TMPRSS2 [8] (quotient Ki TMPRSS2 / Ki uPA), the “Selectivity index [SI] TMPRSS2” value was 0.04. Also, at tPA, the “Ki tPA” value is recorded as “did not show inhibition”. In addition, on thrombin [7] (quotient Ki thrombin / Ki uPA), the “Selectivity index [SI] Thrombin” value came to 31.
